Laboratory results reported in US11028078B2 (The Johns Hopkins University, priority 2011, dated 2021).

Tests used:
CYP3A4 [1] = biological target: T1, CYP3A4 (Homo sapiens, UniProt P08684); test: CYP3A4 enzyme assay (Vivid CYP3A4 Green Screening Kit); format: in vitro ADME; conditions: % enzyme inhibition at 1 μM drug / % enzyme inhibition at 1 μM itraconazole
T1 construct: purchased ThermoFisher P2857; host or cells: baculosomes
Protocol: And CYP3A4 inhibition was initially determined using a cell-free fluorescence-based assay at a final concentration of 1 μM (Table 7).
CYP3A4 enzyme assay. CYP3A4 enzyme activity was tested using Vivid™ CYP3A4 Green Screening Kit (ThermoFisher, #P2857) using the manufacturer's protocol. Briefly, CYP3A4 baculosomes and drugs were incubated 10 min at 37° C. Then Vivid® Substrates were added and the fluorescence (ex/em:485/520) were read every 1 min for 60 minute.

HUVEC [2] = test: Filipin staining of intracellular cholesterol (NPC phenotype); format: cell-based, human; conditions: 0.1 μM, 0.2 μM for 24 h in FIG. 14 legend
Protocol: Intracellular cholesterol was visualized using filipin staining and fluorescent images were captured under a confocal microscope.
(§1) We thus determined whether compound 248 shared the same mechanism with itraconazole. The intracellular cholesterol was detected using the cholesterol-binding fluorescent dye filipin. […] It is known that AMPK activation leads to mTOR inhibition.
Filipin staining. 2000 HUVECs were plated in chamber slide with 1 ml media and allowed to settle overnight. cCells were treated with 0.1 uM drug or DMSO for 14 hours. The the cells were fixed with 4% paraformaldehyde for 15 min. After washed, cells were incubated with 500 ul 50 ug/ml filipin solution for 1 hour in the dark. Then the cells were washed twice with PBS, mounted and covered with coverslip. The images were taken using confocal microscope under 360/460 nm.

[3] = test system: AMPKα, ACC1, mTOR, p70 S6 Kinase phosphorylation; test: Western blot of AMPK/mTOR signaling in HUVEC; format: cell-based, human; conditions: 24 h
Protocol: Cell lysates were subjected to Western blot.
as §1
Western blot. […] Then cells were lysed using RIPA buffer and the protein concentration were measured and normalized. After electrophoresis and transfer onto 0.45 um nitrocellulose membranes, the membranes were bolted with 5% BSA for 1 h and then incubated overnight at 4° C. Secondary antibody was applied to each membrane for 1 hour. Bolts were imaged using Syngene PXi imaging system after adding chemiluminescent substrate. The following antibodies were used for the assay: AMPKα (1:1,000, cell signaling, #2532s), phosphor-AMPKα (1:1,000, cell signaling #2535s), ACC (1:1,000, cell signaling #3662s), phosphor-ACC (1:1,000, cell signaling, #3661s), mTOR (1:1,000, cell signaling, #2972S), phosphor-mTOR (1:1,000, cell signaling, #9234s), p70 S6 Kinase (1:1,000, senta cruz, #sc-8418), phosphor-p70 S6 Kinase (1:1,000, cell signaling, #3662s), anti-Rabbit IgG (1:10000, GE lifesciences, #NA934V).

CYP3A4 [4] = biological target: T1, CYP3A4; test: CYP3A4 enzyme assay (Vivid CYP3A4 Green Screening Kit); format: in vitro ADME
HUVEC [5] = test: HUVEC proliferation assay ([3H]thymidine incorporation); format: cell-based, human; conditions: Homo sapiens; HUVEC, 3H thymidine incorporation; in μM; read-out: Proliferation IC50
In short: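 Pooled HUVEC at passage eight or lower, grown in EGM-2 medium; proliferation measured by [3H]thymidine incorporation as in an earlier published protocol.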

VEGFR2 = VEGFR2 glycosylation in HUVEC (Western blot scoring); format: cell-based, human; conditions: VEGFR2 hypoglycosylation score in HUVEC, 2 μM, 24 h; further: key: ++: robust; +: intermediate; −: absent
Gli1 transcript = test: Quantification of Gli1 transcript by TaqMan analysis in MB cells (Hh pathway); format: cell-based, mouse
In short: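 After drug exposure, total RNA extracted from MB cells, reverse transcribed, and Gli1 quantified by TaqMan qPCR with mouse Gli-1 and actin primer/probe sets. Values expressed as fold induction relative to control by the 2^−ΔΔCt method, normalized to actin.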

HUVEC tube formation = HUVEC tube formation assay on Matrigel; format: cell-based; conditions: Homo sapiens, 20 h, read-out: inhibition of HUVEC tube formation (total tube length)

T1 sequence (P08684 whole entry): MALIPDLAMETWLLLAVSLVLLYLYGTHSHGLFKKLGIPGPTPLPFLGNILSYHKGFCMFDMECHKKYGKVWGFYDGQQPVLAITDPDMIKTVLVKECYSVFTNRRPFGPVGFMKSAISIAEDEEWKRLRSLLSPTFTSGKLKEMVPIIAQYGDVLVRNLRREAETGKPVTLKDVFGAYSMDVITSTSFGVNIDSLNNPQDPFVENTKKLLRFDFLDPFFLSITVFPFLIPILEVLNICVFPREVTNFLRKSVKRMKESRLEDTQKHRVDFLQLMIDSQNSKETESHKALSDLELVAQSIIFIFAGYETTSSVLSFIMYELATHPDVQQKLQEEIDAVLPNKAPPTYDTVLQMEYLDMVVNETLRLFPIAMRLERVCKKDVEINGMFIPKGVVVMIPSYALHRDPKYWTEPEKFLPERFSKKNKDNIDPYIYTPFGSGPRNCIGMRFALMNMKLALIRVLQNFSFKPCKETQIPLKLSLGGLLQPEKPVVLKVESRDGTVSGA

Q: With `CCC(C)n1ncn(-c2ccc(N3CCN(c4ccc(OC[C@@H]5CO[C@@](Cn6cnnn6)(c6ccc(Cl)cc6Cl)O5)cc4)CC3)cc2)c1=O` (stereo partly drawn) [Compound 248, 4-(4=(4-(4-(((2S,4R)-2-((1H-tetrazol-1-yl)methyl)-2-(2,4-dichlorophenyl)-1,3-dioxolan-4-yl)methoxy)phenyl)piperazin-1-yl)phenyl)-1-sec-butyl-1H-1,2,4-triazol-5(4H)-one] as the molecule, how does the “CYP3A4 Inhibition (compared to intracozanole at 1 μm)” value (CYP3A4 [1]) read?
A: 0.02

Q: And the “NPC phenotype (cholesterol accumulation in late endosome/lysosome)” value (HUVEC [2])?
A: induced NPC phenotype

Q: What about the “phosphorylation of AMPKα at Thr172” value ([3]; 0.01-1 μM, dose-dependent) of the same molecule?
A: increased

Q: And the “phosphorylation of acetyl CoA carboxylase 1 (ACC1)” value [3]?
A: increased

Q: What about the “phosphorylation of mTOR” value [3] of the same molecule?
A: decrease

Q: What about the “phosphorylation of p70 S6 Kinase (S6K)” value [3] of the same molecule?
A: decrease

Q: And the IC50 (CYP3A4 [4]; dose response, FIG. 12, read-out: CYP3A4 inhibition IC50)?
A: > 20000 nM

Q: What does the source list for `CCC(C)n1ncn(-c2ccc(N3CCN(c4ccc(OC[C@@H]5CO[C@@](CC)(c6ccc(Cl)cc6Cl)O5)cc4)CC3)cc2)c1=O` (stereo partly drawn) [Compound 259, 1-sec-butyl-4-(4-(4-(4-(((2R,4R)-2-(2,4-dichlorophenyl)-2-ethyl-1,3-dioxolan-4-yl)methoxy)phenyl)piperazin-1-yl)phenyl)-1H-1,2,4-triazol-5(4H)-one]?
A: IC50 (HUVEC [5]): 0.314 µM; CYP3A4 Inhibition (compared to intracozanole at 1 μm) (CYP3A4 [1]): No inhibition; CYP3A4 inhibition in dose response assays (CYP3A4 [4]; FIG. 12, higher concentrations): totally lost CYP3A4 inhibition

Q: How did the IC50 (HUVEC [5]) turn out when `CCC(C)n1ncn(-c2ccc(N3CCN(c4ccc(OC[C@@H]5CO[C@@](CN6CCN(C)CC6)(c6ccc(Cl)cc6Cl)O5)cc4)CC3)cc2)c1=O` (stereo partly drawn) [Compound 265, 1-(sec-butyl)-4-(4-(4-(4-(((2S,4R)-2-(2,4-dichlorophenyl)-2-((4-methylpiperazin-1-yl)methyl)-1,3-dioxolan-4-yl)methoxy)phenyl)piperazin-1-yl)phenyl)-1H-1,2,4-triazol-5(4H)-one] was run?
A: 0.396 µM

Q: What about the “CYP3A4 Inhibition (compared to intracozanole at 1 μm)” value (CYP3A4 [1]) of the same molecule?
A: 0.21

Q: With `CCC(C)n1ncn(-c2ccc(N3CCN(c4ccc(OC[C@@H]5CO[C@@](CN6CCNCC6)(c6ccc(Cl)cc6Cl)O5)cc4)CC3)cc2)c1=O` (stereo partly drawn) [Compound 266, 1-(sec-butyl)-4-(4-(4-(4-(((2S,4R)-2-(2,4-dichlorophenyl)-2-(piperazin-1-ylmethyl)-1,3-dioxolan-4-yl)methoxy)phenyl)piperazin-1-yl)phenyl)-1H-1,2,4-triazol-5(4H)-one] as the molecule, how does the IC50 (HUVEC [5]) read?
A: 0.608 µM

Q: And the “CYP3A4 Inhibition (compared to intracozanole at 1 μm)” value (CYP3A4 [1])?
A: 1.09

Q: What does the source list for `CCC(C)n1ncn(-c2ccc(N3CCN(c4ccc(OCC5COC(Cn6cncn6)(c6ccc(Cl)cc6Cl)O5)cc4)CC3)cc2)c1=O` (stereo not shown) [Itraconazole, reference compound]?
A: Glycosylation (2 μM dose) (VEGFR2): ++; Gli I Inhibition (IC90 Prolif. dose) (Gli1 transcript; Gli1 transcript fold induction score, MB cells exposed 24 h at the IC90 for MB proliferation): ++ (≤0.15); inhibition of Gli1 transcript levels (Gli1 transcript; established MB cultures, FIG. 9B): Dose-dependent inhibition; inhibition at 5 µM (HUVEC tube formation): 45%; NPC phenotype (cholesterol accumulation in late endosome/lysosome) (HUVEC [2]): induce NPC phenotype
